Data from patent US9011853B2, “B7-H4 fusion proteins and methods of use thereof” (Amplimmune, Inc., priority 2009, dated 2015).

Assays:
[1] = system: CD4^+CD62L^+ naïve T cells; assay: In vitro Th17 polarization: proliferation and cytokine production; format: cell-based, mouse; conditions: 0, 0.1, 1 or 10 μg/mL in solution
Procedure: Mouse splenocytes were first removed isolated from DO11.10 mice, which express an MHC class II restricted T cell receptor specific for OVA323-339. Mouse CD4^+ T cells were purified using a Miltenyi CD4^+ T cell negative isolation kit (Cat#130-090-860). Naïve CD4^+ T cells were further purified using the Miltenyi anti-CD62L positive selection magnetic beads (cat#130-049-701).
CD4^+ CD62L^+ naïve T cells with or without CD25^+ T cells were cultured in serum free HL-1 media in the presence of rTGF-β (10 ng/mL), IL-6 (50 ng/mL), IL-23 (4 ng/mL), anti-IL-4 (1 μg/mL), anti-IFN-γ (1 μg/mL) and anti-IL-2 (1 μg/mL). To provide murine B7-H4-Ig in an immobilized format, 96-well flat bottom plates were first coated with murine B7-H4-Ig, 100 μl per well at 1 μg/mL, and incubated at 37° C. for 2 hours. […] For non-specific antigen activation, Mouse CD3/CD28 T Cell Expander beads (Dynabeads®; Invitrogen, Cat#11452D) was added into each well, at a 1:1 cell to bead ratio. […]
[^3H]-Thymidine (1 μCi/well) was added into each well 24 hr post co-incubation. Proliferation was determined by uptake of [^3H]-thymidine detected at 48 hr post [^3H]-thymidine addition using a Topcount Microplate Scintillation Counter (Packard Instruments, Meridan, Conn.). Results are expressed as the mean of triplicate cultures±SEM. […]

[2] = Clearance from circulation; format: in vivo; conditions: compared with control IgG
[3] = system: TNFα, IL6, and chemokine (MCP-1); assay: Plasma proinflammatory molecules in CIA mice, BD Cytometric Bead Array; format: in vivo, mouse
Text: Plasma was collected on day 33 from mice treated as described in Example 3 and analyzed for proinflammatory molecules, e.g. TNFα, IL6, and chemokine (MCP-1) using the BD™ Cytometric Bead Array (CBA) Flex Sets.

CTLA4 KD/NOD mice = assay: Autoimmune diabetes in CTLA4 KD/NOD mice; format: in vivo, mouse; conditions: 15 mg/kg i.p. 3 times per week for 4 weeks from age 2 weeks; mice 24 weeks old (22 weeks post treatment) (FIG. 49)
Procedure: Both female and male CTLA4 KD/NOD mice (Chen et al., PNAS, 103(44):16400-16405 (2006)) at age of 2 weeks were randomly assigned into experimental groups: vehicle (11 mice), and B7-H4-Ig (12 mice). Mice were treated with B7-H4-Ig 3 times per week for 4 weeks (15 mg/kg, per i.p. injection), and monitored 3 times per week for glucose content in the urine first with Diastix. […] Diabetes was determined when blood glucose reached ≧600 mg/dL.

[4] = system: naïve CD4^+CD62L^+ T cells (responder) with nTreg cells; assay: In vitro nTreg suppression assay; format: cell-based, mouse; parameters: CD4+ T cell activation and proliferation: dose or concentration left out as unconfirmed
Text: Spleens and lymph nodes were harvested from 10 FoxP3-GFP mice on a B6 background. […] Naïve CD4^+ T cells were purified from the rest of the cells as described above. A total of 6.2×10^8 naïve CD4^+ T cells were collected. 5×10^7 cells were set aside to be effector T cells in the experiment. The remainder of the cells (5.7×10^8) were stained with anti-CD4 PE-Cy7, and the PE-Cy7^+/GFP^+ cells were sorted via MoFlo. A total of 4×10^6 nTreg (CD4^+/FoxP3^+) cells were collected from the MoFlo at 99% purity. […] The culture wells also received various ratios of nTreg cells: B7-H4-Ig. nTreg cells (CD4^+/CD62L^+/FoxP3-GFP^+) were isolated from B6/FoxP3-GFP mice by MoFLo sorting. Naïve GFP^− T cells CD4^+/CD62L^+/FoxP3-GFP^−) were used as responder cells. Increasing numbers of the nTreg cells were added to constant numbers of naïve CD4^+CD62L^+ T cells, irradiated splenocytic APCs, and anti-CD3 (FIG. 31). […]

[5] = system: mRNAs associated with Th17 cells, Tregs, autoimmune disorders and inflammation; assay: Quantitative RT-PCR of mouse naïve T cells under Th17 differentiation cocktail; format: cell-based; conditions: 1 μg/mL, vs isotype control (Table 13, FIG. 54)
Procedure: CD4^+CD62L^+ naïve T cells were isolated from BALB/c mice as in the above examples, and activated by anti-CD3 and anti-CD28 bound beads in the presence of Th17 differntiation cocktail (TGF-β1 (10 ng/mL), IL-6 (50 ng/mL), IL-23 (4 ng/mL), anti-IL-4 (10 μg/mL), anti-IFN-γ (5 μg/mL) and anti-IL-2 (5 μg/mL)). Cells were incubated with either B7-H4-Ig (two different lots—#22 and #23—at 1 μg/mL) or isotype control. RNA was isolated from the cells and used for quantitative RT-PCR to test the expression levels of a large number of mRNAs associated with Th17 cells, Tregs, autoimmune disorders and inflammation (SA Biosciences mouse Th17 panel).

| Substance | IL-17 production in Th17 cells ([1]; anti-CD3/CD28 beads (FIG. 28)) | murine Th17 proliferation ([1]; anti-CD3/CD28 beads, dose dependent (FIG. 26)) | clearance from circulation [2] | plasma TNFα production ([3]; plasma day 33, vs vehicle control (FIG. 17A)) | plasma IL6 production ([3]; plasma day 33, vs vehicle control (FIG. 17B)) | plasma MCP-1 production ([3]; plasma day 33, vs vehicle control (FIG. 17C)) | diabetes development (blood glucose ≧600 mg/dL) (CTLA4 KD/NOD mice) | anti-CD3 induced T cell activation ([4]; 1:0.12 and 1:0.25 ratios of T cell responder:nTreg, 5 or 10 μg/mL (FIG. 32)) | CD4+ T cell activation and proliferation ([4]; absence of nTreg cells (ratio 1:0), 0, 1, 5, or 10, anti-CD3 (FIG. 32)) | expression of mRNA involved in Th17 cell differentiation (RORc, IL-17A, IL-17F, IL-21, IL-22) [5] |
| --- | --- | --- | --- | --- | --- | --- | --- | --- | --- | --- |
| Human B7-H4-Ig: human B7-H4 extracellular domain fused to hinge, CH2 and CH3 regions of human immunoglobulin Cγ1 chain; representative SEQ ID NOs:114-137 | reduced | blocked murine Th1/Th17 proliferation |  |  |  |  |  |  |  |  |
| B7-H4-Ig: B7-H4 extracellular domain fused to Ig Fc; bare label is the human protein in Example 3, murine protein in Examples 1, 2, 5, 7-11 |  |  | cleared from circulation more rapidly than control IgG | significantly reduced | significantly reduced | significantly reduced | did not develop diabetes | completely blocked anti-CD3 induced T cell activation | suppressed CD4^+ T cell activation and proliferation in a dose dependent manner | downregulates the expression of mRNA involved in Th17 cell differentiation |
